Reference: PubChem BioAssay (NCI)
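Method: 48-hour compound exposure of cells in 96-well plates, five concentrations, linear interpolation of endpoints. GI50 is the concentration that inhibits growth by half. The concentration for full growth arrest is given as TGI.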

Columns and labels:
Assay in all cases: growth of human tumour cells (NCI), 48 h
U251 CNS = tested on: U251 CNS
EKVX NSCLC = tested on: EKVX NSCLC
HL-60(TB) leukemia = tested on: HL-60(TB) leukemia
SN12C renal = tested on: SN12C renal
TK-10 renal = tested on: TK-10 renal
OVCAR-3 ovarian = tested on: OVCAR-3 ovarian
NCI/ADR-RES ovarian = tested on: NCI/ADR-RES ovarian
NCI-H23 lung = tested on: NCI-H23 lung
NCI-H522 lung = tested on: NCI-H522 lung
OVCAR-4 ovarian = tested on: OVCAR-4 ovarian

Compound	TGI (U251 CNS)	TGI (EKVX NSCLC)	TGI (HL-60(TB) leukemia)	TGI (SN12C renal)	TGI (TK-10 renal)	TGI (OVCAR-3 ovarian)	TGI (NCI/ADR-RES ovarian)	TGI (NCI-H23 lung)	TGI (NCI-H522 lung)	GI50 (U251 CNS)	GI50 (OVCAR-4 ovarian)	TGI (OVCAR-4 ovarian)	GI50 (HL-60(TB) leukemia)	GI50 (SN12C renal)	GI50 (NCI-H522 lung)	GI50 (TK-10 renal)	GI50 (OVCAR-3 ovarian)	GI50 (NCI/ADR-RES ovarian)	GI50 (EKVX NSCLC)	GI50 (NCI-H23 lung)
COc1cc(CC2CC(c3ccc4c(c3)OCO4)OC2=O)cc(OC)c1OC (stereo not drawn)	> 100 µM	> 100 µM	> 100 µM	> 100 µM	> 100 µM	> 100 µM	> 100 µM	> 100 µM												
CC1=NN(C(=O)c2cc(Cl)cc([N+](=O)[O-])c2)C(=O)C1N=Nc1ccccc1C(=O)O (stereo not drawn)	> 100 µM	> 100 µM	> 100 µM	> 100 µM	> 100 µM	> 100 µM		> 100 µM	> 100 µM											
Cc1ccc(/C=C2\CN(Cc3cn(CCNc4ccnc5cc(Cl)ccc45)nn3)C/C(=C\c3ccc(C)cc3)C2=O)cc1	3.01 µM		5.26 µM	3.95 µM	3.36 µM	3.24 µM	5.14 µM		3.66 µM	1.57 µM	1.66 µM	3.57 µM	2.23 µM	1.93 µM	1.98 µM	1.91 µM	1.8 µM	2.32 µM		
CCOC(=O)NC(=O)c1cn(C2OC(CO)C(O)C2O)c(=O)[nH]c1=O (stereo not drawn)	> 100 µM	> 100 µM	> 100 µM	> 100 µM		> 100 µM			> 100 µM			> 100 µM								
COC(=O)C12C3C4C1C1C2C3C41C(=O)N(C(C)C)C(C)C (stereo not drawn)	> 100 µM	> 100 µM	> 100 µM	> 100 µM	> 100 µM	> 100 µM		> 100 µM	> 100 µM			> 100 µM								
CCC1(CC)C(=O)[N-]C(=O)[N-]C1=O.[Au+].[Au+].c1ccc([PH+](c2ccccc2)c2ccccc2)cc1.c1ccc([PH+](c2ccccc2)c2ccccc2)cc1	2.65 µM			4.75 µM	3.18 µM	2.59 µM			0.244 µM	1.16 µM				2.08 µM	0.119 µM	1.79 µM	1.31 µM			
CCOC(=O)/C(C#N)=C(N)/C(=N\Nc1cccc(C(F)(F)F)c1)C(=O)OCC	> 100 µM	> 100 µM	> 100 µM	> 100 µM	> 100 µM	> 100 µM		> 100 µM	> 100 µM			> 100 µM								
COc1cc(/C=C\c2cc(OC)c(OC)c(OC)c2)cc(NS(=O)(=O)c2cccc(Cl)c2)c1OC	> 100 µM	> 100 µM	> 100 µM	> 100 µM	> 100 µM	> 100 µM		> 100 µM	88.2 µM	0.0482 µM	0.248 µM	> 100 µM	0.032 µM	0.223 µM	0.0373 µM	2.01 µM	0.0346 µM		0.264 µM	0.386 µM
O=C(O)c1oc2cccc3c2c1CCC3	> 100 µM	> 100 µM	> 100 µM	> 100 µM	> 100 µM	> 100 µM		> 100 µM	> 100 µM			> 100 µM								
Cc1ccc(SCC(O)=C2C(=O)CCCC2=O)cc1	> 100 µM	> 100 µM	> 100 µM	> 100 µM	> 100 µM	> 100 µM		> 100 µM	> 100 µM			> 100 µM								
